What was measured:
HL-60 cells = assay: MTT cytotoxicity assay of oxovanadium(IV) compounds, HL-60; type: cell-based, human; conditions: 48 hr
Method: (§1) The cytotoxicity of oxovanadium (W) complexes listed in Table 6 were tested against 9 different human cancer cell lines was performed using the MTT (3-[4,5-dimethylthiazol-2-yl]-2,5-diphenyl tetrazolium bromide) assay (Boehringer Mannheim Corp., Indianapolis, Ind.) as described previously (20). Briefly, exponentially growing tumor cells were seeded into a 96-well plate at a density of 4×10^4cells/well and incubated with medium containing the oxovanadium(IV) compounds concentrations ranging from 0.1 to 250 μM for 48 hours at 37° C. in a humidified 5% CO2 atmosphere. Triplicate wells were used for each treatment. To each well, 10 μl of MTT (0.5 mg/ml final concentration) was added and the plates were incubated at 37° C. for 4 hours to allow MTT to form formazan crystals by reacting with metabolically active cells . The formazan crystals were solubilized overnight at 37° C. in a solution containing 10% SDS in 0.01 M HCl. The absorbence of each well was measured in a microplate reader (Labsystems) at 540 nm and a reference wavelength of 690 nm. To translate the OD540 values into the number of live cells in each well, the OD540 values were compared to those on standard OD540—versus—cell number curves generated for each cell line. The percent survival was calculated using the formula: % survival=Live cell number[test]/Live cell number [control]×100. The IC50 values were calculated by non-linear regression analysis using an Graphpad Prism software version 2.0 (Graphpad Software, Inc., San Diego, Calif.).

NALM-6 cells [1] = assay: MTT cytotoxicity assay of oxovanadium(IV) compounds, NALM-6; type: cell-based, human; conditions: 48 hr
Method: as §1

[2] = test system: U266BL multiple myeloma cells; assay: MTT cytotoxicity assay of oxovanadium(IV) compounds, U266BL; type: cell-based, human; conditions: 48 hr
Method: as §1

[3] = test system: PC3 prostate cancer cells; assay: Cytotoxic activity of oxovanadium(IV) compounds, PC3; type: cell-based, human; conditions: read-out: Cytotoxic Activity PC3
Method: as §1

HS-SULTAN cells = assay: In situ detection of apoptosis, confocal microscopy, HS-SULTAN; type: cell-based, human; conditions: 48 hours after treatment
Method: (§2) Exponentially growing cells were seeded in 6-well tissue culture plates and incubated with fresh medium containing compounds. […] The cells were fixed in 2% paraformaldehyde, washed with PBS and pelleted by centrifuging the tubes at 1000 rpm for 5 min. Cells pellets were resuspended in 50 μl of PBS, transferred to superforst plus slides and allowed to attach for 15 min. The cells were permeabilized with 0.1% triton X-100 in 0.1% citrate buffer and incubated for 1 hr at 37° C. with the reaction mixture containing terminal deoxynucleotidyl transferase (TdT) and fluorescein isothiocyanate (FITC)-conjugated dUTP. Cells were washed with PBS to remove unbound reagents and the coverslips were mounted onto slides with Vectashield containing propidium iodide (Vector Labs, Burlingame, Calif.) and slides were viewed with a confocal laser scanning microscope. […] In control reactions, the TdT enzyme was omitted from the reaction mixture.

[4] = test system: HS445 Hodgkin's lymphoma cells; assay: MTT cytotoxicity assay of oxovanadium(IV) compounds, HS445; type: cell-based, human; conditions: 48 hr
Method: as §1

[5] = test system: 64cp5 testicular cancer cells; assay: Cytotoxic activity of oxovanadium(IV) compounds, 64cp5; type: cell-based, human; conditions: read-out: Cytotoxic Activity 64cp5
Method: as §1

[6] = test system: 833-K testicular cancer cells; assay: Cytotoxic activity of oxovanadium(IV) compounds, 833-K; type: cell-based, human; conditions: read-out: Cytotoxic Activity 833-K
Method: as §1

MOLT-3 cells = assay: MTT cytotoxicity assay of oxovanadium(IV) compounds, MOLT-3; type: cell-based, human; conditions: 48 hr
Method: as §1

[7] = test system: Tera-2 testicular cancer cells; assay: Cytotoxic activity of oxovanadium(IV) compounds, TERA-2; type: cell-based, human; conditions: read-out: Cytotoxic Activity TERA-2
Method: as §1

[8] = test system: HS-SULTAN multiple myeloma cells; assay: MTT cytotoxicity assay of oxovanadium(IV) compounds, HS-SULTAN; type: cell-based, human; conditions: 48 hr
Method: as §1

NALM-6 cells [9] = assay: In situ detection of apoptosis, confocal microscopy, NALM-6; type: cell-based, human; conditions: 48 hours after treatment
Method: as §2

BT20 breast cancer cells = assay: Cytotoxic activity of oxovanadium(IV) compounds, BT20; type: cell-based, human; conditions: read-out: Cytotoxic Activity BT20
Method: as §1

[10] = test system: NTD1 testicular cancer cells; assay: Cytotoxic activity of oxovanadium(IV) compounds, NTD1; type: cell-based, human; conditions: read-out: Cytotoxic Activity NTD1
Method: as §1

U373 glioblastoma cells = assay: Cytotoxic activity of oxovanadium(IV) compounds, U373; type: cell-based, human; conditions: read-out: Cytotoxic Activity U373
Method: as §1

[11] = test system: ARH77 multiple myeloma cells; assay: MTT cytotoxicity assay of oxovanadium(IV) compounds, ARH77; type: cell-based, human; conditions: 48 hr
Method: as §1, with “Briefly, exponentially growing tumor cells were seeded into a 96-well plate at a density of 4×10^4cells/well and incubated with medium containing the oxovanadium(IV) compounds concentrations ranging from 0.1 to 250 μM for 48 hours at 37° C. in a humidified 5% CO2 atmosphere.” left out

[12] = test system: Tera-2 and Ntera-2 human testicular cancer cell lines; assay: MTT cytotoxicity assay, text statements for both testicular cancer cell lines; type: cell-based; conditions: Tera-2 and Ntera-2, tested side-by-side, up to 250 μM; read-out: IC50 (cytotoxicity, two testicular cancer cell lines)
Method: Human testicular cancer cell lines, Tera-2 (embryonal carcinoma) and Ntera-2 (pluripotent embryonal carcinoma) were obtained from the American Type Culture Collection (ATCC) (Rockeville, Md.) and propagated in T-25, T-75, or T-150 cm^2 tissue culture flasks (Corning Corp., Corning, N.Y.) in McCoy's 5A medium and Dulbecco's modified Eagle's medium respectively. Both media were supplemented with 10% fetal calf serum (FCS), 4 mM glutamine, 100 U/ml penicillin G, and 100 mg/ml streptomycin sulfate. All tissue culture reagents were obtained from Life Technologies Inc. (GIBCO-BRL), Gaithersburg, Md. Cell lines were cultivated for a minimum of two passages after thawing prior to experimentation.
MTT (3-[4,5-dimethyl thiazol-2-yl]-2,5-diphenyltetrazolium bromide)-based colorimetric assays were used for evaluation of the cytotoxicity of vanadocene compounds. […] Briefly, cells were harvested with 0.125% (w/v) trypsin-0.02% EDTA (GIBCO-BRL) from exponential-phase maintenance cultures and centrifuged (300 g×5 min). After suspension and counting, cells were dispensed within triplicate 96-well tissue culture plates in 100 μl volumes. […] After an overnight incubation at 37° C., the optical densities at 540 nm were measured using a 96-well multiscanner autoreader, with the solubilization buffer serving as blank. All assays were run in triplicate and results were expressed as IC50 values.

[13] = test system: Tera-2 testicular cancer cells; assay: MTT cytotoxicity assay of vanadocenes, TERA-2 cells; type: cell-based, human; conditions: 24 h, 1.9-250 μM
Method: (§3) Human testicular cancer cell lines, Tera-2 (embryonal carcinoma) and Ntera-2 (pluripotent embryonal carcinoma) were obtained from the American Type Culture Collection (ATCC) (Rockeville, Md.) and propagated in T-25, T-75, or T-150 cm^2 tissue culture flasks (Corning Corp., Corning, N.Y.) in McCoy's 5A medium and Dulbecco's modified Eagle's medium respectively. Both media were supplemented with 10% fetal calf serum (FCS), 4 mM glutamine, 100 U/ml penicillin G, and […] streptomycin sulfate. All tissue culture reagents were obtained from Life Technologies Inc. (GIBCO-BRL), Gaithersburg, Md. Cell lines were cultivated for a minimum of two passages after thawing prior to experimentation. Other cell lines that were used in this study were the human B-lineage acute lymphoblastic leukemia (ALL) cell line NALM-6. Uckun, F. M., Evans, W. E., Forsyth, C. J., Waddick, K. G., Tuel-Ahlgren, L., Chelstrom, L. M., Burkhardt, A., Bolen, J., Myers, D. E. Biotherapy of B-cell precursor leukemia by targeting genistein to CD19-associated tyrosine kinase. Science (Washington DC) 267:886–91, 1995; T-lineage ALL cell line MOLT-3, Waurzyniak, B., Shneider, E. A., Tumer, N., Yanishevski, Y., Gunther, R., Chelstrom, L., Wendorf, H., Myers, D. E., Irvin, J. D., Messinger, Y., Ek, O., Zeren, T., Chandan-Langlie, M., Evans, W. E., Uckun, F. M. In vivo toxicity, pharmacokinetics, and antileukemic activity of TXU (anti-CD7)-pokeweed antiviral protein immunotoxin. Clinical Cancer Research 3:881–890, 1997; AML cell line HL-60, Perentesis, J. P., Waddick, K. G., Bendel, A. E., Shao, Y., Warman, B. E., Chandan-Langlie, M., and Uckun, F. M. Induction of apoptosis in multi-drug resistant andradiation-resistant acute myeloid leukemia cells by a recombinant fusion toxin directed against the granulocyte macrophage colony stimulating factor receptor. Clin. Cancer Res. 3:347–355, 1997; breast cancer cell lines MDA-MB-231 and BT-20, Uckun, F. M., Narla, R. K., Jun, X., Zeren, T., Venkatachalam, T., Waddick, K. G., Rostostev, A., Myers, D. E. Cytotoxic activity of EGF-genstein against breast cancer cells. Clin. Cancer Res. 4:901–912, 1998; glioblastoma cell lines U87 and U373, Narla, R. K., Liu, X., Myers, D. E., and Uckun, F. M. 4-(3′-Bromo-4′hydroxylphenyl)-amino-6,7-dimethoxyquinazoline (WHI-P154): A novel quinazoline derivative with potent cytotoxic activity against human glioblastoma cells. Clin. Cancer Res. 4:1405–1414, 1998.
(§4) MTT (3-[4,5-dimethyl thiazol-2-yl]-2,5-diphenyltetrazolium bromide)-based colorimetric assays were used for evaluation of the cytotoxicity of vanadocene compounds. Mosmann, T. Rapid colorimetric assay for cellular growth and survival: application to proliferation and cytotoxicity assays. J. Immunol. Methods, 65: 55–63, 1983. Briefly, cells were harvested with 0.125% (w/v) trypsin-0.02% EDTA (GIBCO-BRL) from exponential-phase maintenance cultures and centrifuged (300 g×5 min). After suspension and counting, cells were dispensed within triplicate 96-well tissue culture plates in 100 μl volumes. After 24 h incubation, the culture medium was discarded and replaced with 100 μl of fresh medium containing serial two-fold dilutions of drugs in medium to yield 1.9 μM to 250 μM. All compounds were reconstituted in DMSO to a concentration of 100 mM, and the stock solution was made fresh for each experiment. Control wells consisted of medium containing 0.25% of DMSO alone were used for solvent control. Culture plates were then incubated for 24 h before adding 10 μl of MTT solution (5 mg/ml in PBS) to each well. Wells containing only medium and MTT were used as controls for each plate. The tetrazolium/formazan reaction was allowed to proceed for 4 h at 37° C., and then 100 μl of the solubilization buffer (10% sodium dodecyl sulfate in 0.1% HCl) were added to all wells and mixed thoroughly to dissolve the dark blue formazan crystals. […]

[14] = test system: Ntera-2 testicular cancer cells; assay: MTT cytotoxicity assay of vanadocenes, NTERA-2 cells; type: cell-based, human; conditions: 24 h, 1.9-250 μM
Method: as §3, §4

| Compound | IC50 (HL-60 cells) | IC50 (NALM-6 cells [1]) | IC50 [2] | IC50 [3] | apoptotic nuclei (FITC-dUTP / propidium iodide), HS-SULTAN (HS-SULTAN cells) | IC50 [4] | IC50 [5] | IC50 [6] | IC50 (MOLT-3 cells) | IC50 [7] | IC50 [8] | apoptotic nuclei (FITC-dUTP / propidium iodide), NALM-6 (NALM-6 cells [9]) | IC50 (BT20 breast cancer cells) | IC50 [10] | IC50 (U373 glioblastoma cells) | IC50 [11] | IC50 [12] | IC50 [13] | IC50 [14] |
| --- | --- | --- | --- | --- | --- | --- | --- | --- | --- | --- | --- | --- | --- | --- | --- | --- | --- | --- | --- |
| (diaqua)(4,7-dimethyl-1,10-phenanthroline)oxovanadium(IV) sulfate [Compound 28] | 6.2 ± 2.3 µM | 0.78 ± 0.1 µM | 1.3 ± 0.1 µM | 5.8 µM | many apoptotic yellow nuclei | 3.3 ± 1.4 µM | 15.2 µM | 6 µM | 1.37 ± 0.07 µM | 57.6 µM | 5.1 ± 1.02 µM | many apoptotic yellow nuclei | 2.1 µM | 12.8 µM | 2.2 µM | 8.1 ± 1.6 µM |  |  |  |
| O=S(=O)([O-])[O-].[O]=[V+2] [VDSO4, vanadyl(IV) sulfate, reference compound] |  |  |  |  |  |  |  |  |  |  |  |  |  |  |  |  | > 250 µM | > 250 µM | > 250 µM |

— patent US7091351B2, “Vanadium compounds for treating cancer” (Parker Hughes Institute, priority 1998, dated 2006)
